According to US4517311A, “2'-Substituted-spiro[benzofuran-2(3H),1'-cycloalkanes] and their analgesic and anti-depressant compositions” (Hoechst-Roussel Pharmaceuticals Inc., priority 1982, dated 1985):
Structures can show the parent of a compound that is named as a salt. Where two headings read alike, the source gives them in different places.

Key:
[1] = tested on: tetrabenazine-induced depression in mice; assay: Antidepressant activity (inhibition of tetrabenazine induced ptosis / tetrabenazine-induced depression); type: in vivo; conditions: for ED50: Mus musculus
Protocol: (§1) The antidepressant and analgesic activities of various spiro compounds having the formula [drawing 32] where X is hydrogen, chlorine or bromine and m is 1 or 2, taken as representative of a lower class of compounds having the formula I are presented in Table 1. The data presented therein were determined in accordance with the above described procedures.
1. Antidepressant activity (as measured by inhibition of
tetrabenazine induced ptosis).
3. Anti-depressant activity (as measured by inhibition
tetrabenazine induced ptosis)

[2] = tested on: phenylquinone writhing in mice; assay: Analgesic activity (phenylquinone writhing test); type: in vivo, male, CD-1 mice; conditions: for % Inhibition (analgesic activities, phenylquinone writhing test): 20 mg/kg, subcutaneously (sc), Table 1 part 4; for ED50: Mus musculus, sc, Table 1 part 2, estimated by computer linear regression analysis
Protocol: This produces a characteristic "writhe" which is defined as an inward rotation of one or more feet with twisting and turning of the trunk, drawing in of the abdominal wall, lordosis and arching of the back.
A total of 28 male, CD-1 mice (18 to 30 grams) are employed for a time response. Animals receive food and water ad libitum. Drugs to be tested are prepared with distilled water, and if insoluble, one drop of a suitable surfactant is added.
Twenty animals (5/group) are administered the drug subcutaneously (sc) 15, 30, 45 and 60 minutes prior to phenylquinone injection. Control animals (2/group) receive an equal amount of vehicle. After the administration of phenylquinone, the mice are placed separately into one-liter beakers and 5 minutes are allowed to elapse. The mice are then observed for a period of 10 minutes and the number of writhes are recorded for each animal. The formula for computing percent inhibition is: [formula]
The time period with the greatest percent of inhibition is considered the peak time.
A dose range is run in the same fashion as a time response except ten animals per group are tested at the peak time of drug activity. Fifty animals, four drug groups, and a vehicle control are employed. Animals are dosed and tested in a randomized manner. An estimated ED50 is calculated by a computer linear regression analysis.
as §1
2. Analgesic activities (as measured in the
phenylquinone writhing test).

[3] = po, Table 1 part 1, read-out: ED50 (antidepressant activity, inhibition of tetrabenazine induced ptosis)

SMILES	ED50 [1, 3] [mg/kg]	also measured
CN(C)C[C@@H]1CCC[C@@]12Cc1cc(Br)ccc1O2 (relative stereo) [(1'β,2'β)-2'-dimethylaminomethylspiro[5-bromobenzofuran-2(3H),1'-cyclopentane]hydrochloride]		ED50 ([1]; (po) [orally], Table 1 part 3, read-out: 50% Inhibition (ED50), anti-depressant activity, inhibition of tetrabenazine induced ptosis): 17.3 mg/kg; % Inhibition (analgesic activities, phenylquinone writhing test) [2]: 53%
CN(C)C[C@@H]1CCCC[C@]12Cc1ccccc1O2 (relative stereo) [H Me trans 1, (1'β,2'β)-2'-Dimethylaminomethylspiro[benzofuran-2(3H),1'-cyclohexane]Hydrochloride]	3	ED50 [2]: 2.9 mg/kg
CN(C)C[C@@H]1CCC[C@@]12Cc1cc(Cl)ccc1O2 (relative stereo) [(1'β,2'β)-2'-dimethylaminomethylspiro[5-chlorobenzofuran-2(3H),1'-cyclopentane]hydrochloride]		% Inhibition (analgesic activities, phenylquinone writhing test) [2]: 40%
CN(C)C[C@@H]1CCCC[C@]12Cc1c(Cl)cccc1O2 (relative stereo) [4-chloro Me trans 1, (1'α2'β)-2'-Dimethylaminomethylspiro[4-chlorobenzofuran-2(3H),1'-cyclohexane]Hydrochloride]	5.7	
CN(C)C[C@@H]1CCCC[C@@]12Cc1ccccc1O2 (relative stereo) [H Me cis 1, (1'β,2'β)-2'-Dimethylaminomethylspiro[benzofuran-2(3H),1'-cyclohexane]Hydrochloride]		ED50 [2]: 5.98 mg/kg
CN(C)C[C@@H]1CCC[C@@]12Cc1ccccc1O2 (relative stereo) [(1'β,2'β)-2'-dimethylaminomethylspiro[benzofuran-2(3H),1'-cyclopentane]hydrochloride]		% Inhibition (anti-depressant activity, inhibition of tetrabenazine induced ptosis) ([1]; 20 mg/kg intraperitoneal, Table 1 part 3): 53%; % Inhibition (analgesic activities, phenylquinone writhing test) [2]: 37%
CN(C)C[C@@H]1CCCC[C@]12Cc1cc(Cl)ccc1O2 (relative stereo) [5-chloro Me trans 1, (1'α,2'β)-2'-Dimethylaminomethylspiro[5-chlorobenzofuran-2(3H),1'-cyclohexane]Hydrochloride]	1.39	
CN(C)C[C@@H]1CCCC[C@@]12Cc1cc(Cl)c(Cl)cc1O2 (relative stereo) [5,6-dichloro Me cis 1, (1'β,2'β)-2'-Dimethylaminomethylspiro[5,6-dichlorobenzofuran-2(3H),1'-cyclohexane]Hydrochloride]	3.46	
CCN(CC)C[C@@H]1CCCC[C@@]12Cc1cc(Cl)ccc1O2 (relative stereo) [5-chloro Et cis 1, (1'β,2'β)-2'-Diethylaminomethylspiro[5-chlorobenzofuran-2(3H),1'-cyclohexane]Hydrochloride]	4.73	
CN(C)C[C@@H]1CCCC[C@@]12Cc1cc(Br)ccc1O2 (relative stereo) [5-bromo Me cis 1, (1'β,2'β)-2'-Dimethylaminomethylspiro[5-bromobenzofuran-2(3H),1'-cyclohexane]Hydrochloride]	4.73	
CN(C)C[C@@H]1CCCC[C@@]12Cc1cc(Cl)ccc1O2 (relative stereo) [5-chloro Me cis 1, (1'β,2'β)-2'-Dimethylaminomethylspiro[5-chlorobenzofuran-2(3H),1'-cyclohexane]Hydrochloride]	1.5	ED50 [2]: 4.96 mg/kg
CN(C)C[C@@H]1CCCC[C@]12Cc1ccc(Cl)cc1O2 (relative stereo) [6-chloro Me trans 1, (1'α,1'β)-2'-Dimethylaminomethylspiro[6-chlorobenzofuran-2(3H),1'-cyclohexane]Hydrochloride]	0.42	
